Test results as given in article PMC12673918, “Design, Synthesis, and Selective Antiproliferative Activity of Indolizine Derivatives as Microtubule Destabilizers” (Archiv Der Pharmazie, 2025).
Where two headings read alike, the source gives them in different places.

Columns and labels:
Format in all cases: cell-based
[1] = system: HGC‐27 (gastric carcinoma); assay: Resazurin cell viability assay, HGC‐27; conditions: for inhibition at 50 µM / IC50: Homo sapiens, HGC-27; for inhibition at 50 µM: read-out: % Cellular growth inhibition (at 50 µM) HGC‐27; for decrease in IC50 relative to 7f (HIT): HGC‐27
In short: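 Cells in DMEM/10% FBS, 1 × 10^3 per well, adhered overnight, then treated with compounds (0–50 µM) for 72 h. Viability read as fluorescence (ex 530, em 590 nm) after 4 h with 44 µM resazurin. % growth inhibition at 50 µM and IC50 by nonlinear regression, triplicates.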

[2] = system: OHMF (non‐tumoral oral fibroblast); assay: Resazurin cell viability assay, OHMF fibroblasts; conditions: Homo sapiens, 72 h, n = 3
Description: (§1) The tongue squamous cell carcinoma cell line CAL‐27 (ATCC CRL‐2095), breast carcinoma BT‐20 (ATCC HTB‐19), gastric carcinoma HGC‐27 (BCRJ Code 0310), and normal oral fibroblast OHMF (culture of fibroblasts derived from human oral healthy mucosa, approved by the Research Ethics Committee of the University of São Paulo, Campus of Ribeirão Preto, Brazil (with protocol number 049) were cultured in DMEM medium (DMEM, Sigma‐Aldrich, St. Louis, MO, USA) supplemented with 10% fetal bovine serum and a solution of penicillin (100 U/mL) and streptomycin (100 μg/mL). The cultures were maintained in a humidified incubator with 5% CO₂ at 37°C.
(§2) Cell viability was analyzed using the resazurin assay. For this, cells were seeded in 96‐well plates (1 × 10^3 cells per well) and incubated at 37°C with 5% CO₂ overnight for cell adhesion. Subsequently, the cells were treated with different compounds (0–50 µM) for 72 h. After treatment, the medium was replaced with phenol‐free DMEM medium (Sigma‐Aldrich) containing resazurin at a concentration of 44 µM (Sigma‐Aldrich). After incubation for 4 h at 37°C, fluorescence detection was performed (excitation 530/25 nm, emission 590/35 nm) using a microplate fluorimeter (Synergy 2, Biotek). Initial cell growth inhibition assays were performed in triplicate or quadruplicate, while IC50 determinations were conducted in triplicate. Data were plotted, and IC₅₀ values were determined by nonlinear regression using GraphPad Prism software 9.0.

[3] = molecular target: T1, human P2X7 receptor (Homo sapiens, UniProt Q99572); assay: YO‐PRO‐1 dye uptake assay for the P2X7 receptor; conditions: for inhibition at 10 µM: P2X7, read-out: % Inhibition of P2X7R at 10 µM compounds’ concentration; for off‐target activity against the P2X7 receptor: 10 μM
T1 construct: host or cells: HEK-293
T1 sequence (Q99572 1-595): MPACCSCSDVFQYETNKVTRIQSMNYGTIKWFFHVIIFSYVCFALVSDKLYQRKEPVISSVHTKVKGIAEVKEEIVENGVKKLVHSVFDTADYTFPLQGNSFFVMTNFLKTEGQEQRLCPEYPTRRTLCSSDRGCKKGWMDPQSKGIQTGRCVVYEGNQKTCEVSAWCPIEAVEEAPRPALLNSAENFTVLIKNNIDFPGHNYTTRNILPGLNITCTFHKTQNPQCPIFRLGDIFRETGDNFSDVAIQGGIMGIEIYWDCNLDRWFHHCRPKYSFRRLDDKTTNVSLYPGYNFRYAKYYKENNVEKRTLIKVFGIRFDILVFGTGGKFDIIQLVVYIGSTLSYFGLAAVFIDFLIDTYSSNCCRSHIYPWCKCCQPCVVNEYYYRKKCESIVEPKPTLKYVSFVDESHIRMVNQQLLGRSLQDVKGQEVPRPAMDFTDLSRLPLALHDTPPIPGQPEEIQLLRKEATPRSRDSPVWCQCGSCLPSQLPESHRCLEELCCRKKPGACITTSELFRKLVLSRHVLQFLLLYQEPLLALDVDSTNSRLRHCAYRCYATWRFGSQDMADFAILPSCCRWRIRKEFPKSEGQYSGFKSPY
Description: HEK‐293 cell lines stably expressing human P2X7 receptor (hP2X7R‐HEK‐293, B'SYS GmbH, Witterswil, Switzerland) were maintained in a 50/50 mix of Dulbecco's Modified Eagle Medium and F12 medium (DMEM/F12) supplemented with 9% (v/v) FCS, 1% (v/v) Penicillin/Streptomycin (10000 I.U./mL, 10 mg/mL in 0.9% NaCl) and G418 (100 µg/mL) at 37°C and 5% CO2. Cells were subcultured in cell culture 75 cm^2 flasks and split every 2‐4 days (1:3; 1:6; 1:10) once confluent.
HEK‐293 cell lines stably expressing human P2X7 receptor were seeded into black‐walled Nunc 96‐well optical bottom plates (Thermo Fisher Scientific) at 2.0–4.0 × 10^4 cells/well and incubated at 37°C for 24–48 h. After removing the culture medium, cells were washed with 100 µL wash buffer (280 mM Sucrose; 5.6 mM KCl; 0.5 mM CaCl2; 10 mM D‐Glucose; 10 mM HEPES; 5 mM N‐Methyl‐D‐glucamine (pH 7.4)). Then, 50 µL assay buffer (280 mM Sucrose; 6.4 mM KCl, 10 mM D‐Glucose; 10 mM HEPES; 5.0 mM N‐Methyl‐D‐glucamine (pH 7.4)) and 50 µL of antagonist dilutions (10^–5–10^–9 M) in assay buffer were added, and the cells were incubated at 37°C for 30 min. […] Finally, the uptake of YO‐PRO‐1 dye was recorded in a 9‐point‐well scan by following the fluorescence change using a FlexStation 3 Multi‐Mode Microplate Reader (Molecular Devices, San Jose, CA, USA, Software SoftMax7 Pro, endpoint protocol, well scan with reading pattern “fill scan”, λ ex = 485 nm, λ em = 535 nm). To determine the concentration‐dependent uptake inhibition by antagonists, the YO‐PRO‐1 uptake, expressed as RFU, was plotted against the concentrations of the compounds.

[4] = system: GNP15; assay: Resazurin cellular growth inhibition, GNP15; conditions: 72 hours, triplicate; read-out: IC50 (nM, Cellular growth inhibition) GNP15 (supplement)
Description: ^b IC50 values were determined using the same resazurin-based assay, with fluorescence measurements performed after 72 hours of treatment. These experiments were carried out in triplicate.

[5] = system: CAL‐27, BT‐20 and HGC‐27 cancer cell lines; assay: Resazurin antiproliferative screening, cancer cell line panel; conditions: for level of inhibition in the 50 µM screening: 70% inhibition threshold; for IC50: range over CAL‐27, BT‐20, HGC‐27, read-out: IC50 values across cancer cell lines
Description: as §1, §2

[6] = system: BT‐20 breast cancer cells; assay: Cell‐cycle assay by flow cytometry; conditions: 2.5 µM, 24 h
Description: BT‐20 cells were seeded in 10 cm plates (1.5 × 10⁶ cells/plate) and incubated at 37°C with 5% CO₂ for 24 h. Subsequently, the cells were treated with different compounds at a concentration of 2.5 µM for 24 h. After treatment, the cells were collected by centrifugation and fixed in cold 70% ethanol for 1 h at 4°C. The cells were then washed, collected by centrifugation, and treated with RNase A (100 μg/mL, Sigma‐Aldrich) for 30 min at 37°C, followed by staining with propidium iodide (50 μg/mL) for 15 min at 37°C. Finally, the percentages of cells in each phase of the cell cycle were determined using FACSCalibur flow cytometry (BD Biosciences—San Jose, CA, USA). Cell‐cycle distribution was analyzed using ModFit LT V3.3 software.

[7] = 72 h, mean ± SD, n = 3, read-out: IC50 (nM) HGC‐27
[8] = 72 hours, triplicate, read-out: IC50 (nM, Cellular growth inhibition) HGC-27 (supplement)

SMILES | inhibition at 50 µM ([1]; 72 h, mean ± SD, n = 3) | IC50 [1, 7] | IC50 [1, 8] | IC50 [2] | inhibition at 10 µM [3] | IC50 [4] | level of inhibition in the 50 µM screening [5] | decrease in IC50 relative to 7f (HIT) [1] | cell‐cycle distribution [6] | off‐target activity against the P2X7 receptor [3] | IC50 [5]
COc1ccc2c(C(=O)c3ccc(Cl)c(Cl)c3)ccn2c1 [Compound 7e, (6‐methoxyindolizin‐1‐yl)(3,4‐dichlorophenyl)methanone] | 68 ± 3.4% | 11900 nM | 14100 nM | > 50000 nM | 4% | > 50000 nM | – | – | – | – | –
COc1ccc2c(C(=O)c3cc(OC)c(OC)c(OC)c3)c(C)cn2c1 [Compound 8a, (6‐methoxy‐2‐methylindolizin‐1‐yl)(3,4,5‐trimethoxyphenyl)methanone] | 41 ± 4.3% | 410 ± 212 nM | 370 ± 28 nM | > 50000 nM | 9% | > 50000 nM | – | – | – | – | –
COc1ccc2c(C(=O)c3cc(OC)c(OC)c(OC)c3)c(C(C)(C)C)cn2c1 [Compound 8b, [2‐(Tert‐Butyl)‐6‐Methoxyindolizin‐1‐yl](3,4,5‐Trimethoxyphenyl)Methanone] | 46 ± 6% | – | – | – | -7% | – | 89.5% to 73.1 | – | – | – | –
COc1ccc2c(C(=O)c3cc(OC)c(OC)c(OC)c3)c(C(F)(F)F)cn2c1 [Compound 8e, [6‐methoxy‐2‐(trifluoromethyl)indolizin‐1‐yl](3,4,5‐trimethoxyphenyl)methanone] | 53 ± 2.2% | 117 ± 32 nM | 105 ± 49 nM | > 50000 nM | 8% | > 50000 nM | 89.5% to 73.1 | four‐ to sixfold decrease | significant accumulation of cells in the G2/M phase | none of the synthesized compounds, including 8e and 8h, showed significant activity | 47 to 117 nM
CCCc1cn2cc(OC)ccc2c1C(=O)c1cc(OC)c(OC)c(OC)c1 [Compound 8h, (6‐methoxy‐2‐propylindolizin‐1‐yl)(3,4,5‐trimethoxyphenyl)methanone] | 70 ± 3.3% | 75 ± 35 nM | 90 ± 56 nM | > 50000 nM | -1% | > 50000 nM | 89.5% to 73.1 | four‐ to sixfold decrease | significant accumulation of cells in the G2/M phase | none of the synthesized compounds, including 8e and 8h, showed significant activity | 47 to 117 nM
COc1ccc2c(C(=O)c3cc(OC)c(OC)c(OC)c3)c(-c3ccc(C)cc3)cn2c1 [Compound 8j, [6‐methoxy‐2‐(p ‐tolyl)indolizin‐1‐yl](3,4,5‐trimethoxyphenyl)methanone] | 71 ± 2% | 465 ± 35 nM | – | > 50000 nM | -2% | > 50000 nM | 89.5% to 73.1 | – | – | – | –
COc1ccc(-c2cn3cc(OC)ccc3c2C(=O)c2cc(OC)c(OC)c(OC)c2)cc1 [Compound 8k, [6‐methoxy‐2‐(4‐methoxyphenyl)indolizin‐1‐yl](3,4,5‐trimethoxyphenyl)methanone] | 74 ± 2% | 880 ± 14 nM | 800 ± 127 nM | > 50000 nM | 10% | > 50000 nM | 89.5% to 73.1 | – | – | – | –
